The compounds below were run against T1, HuRfl (Homo sapiens, UniProt Q15717) (assay: Competition experiments with ARE RNA binding to HuRfl (anisotropy, 2D-FIDA)). Settings: dissociation constants from competition experiments with ARE RNA binding to HuRfl; 1:1:1 stoichiometric, competitive inhibition assumed.
T1 construct: HuRfl full length HuR protein
Description: (1) A cellular reporter gene assay with firefly luciferase under control of the IL-2 or TNF-α AU-rich element. This assay is designed to identify cellularly active, non-toxic inhibitors of ARE-mediated mRNA stabilization. The confirmed hits are tested in a control assay with the luciferase CDS under the IL-2 or TNF-α promoter to exclude compounds acting at the transcriptional level. By definition, the identified hit compounds interfere with posttranscriptional stabilization of short-lived ARE mRNAs at some level along the ARE pathway. (2) In vitro screen for HuR-ARE inhibitors using confocal fluctuation spectroscopy. This assay uses 2D-FIDA to monitor binding of HuR12, a shortened variant of HuR to a TMR labeled ARE RNA in solution. Compounds identified in this screen are supposed to interfere with HuR-ARE recognition by binding either to the ARE or to HuR12. (3) CONA with HuR. Combinatorial on-bead libraries are screened for high affinity HuR binders with CONA. After picking of hit beads and cleavage of on-bead binders from the solid support, the compound structures are decoded by PHPLC-MS. Binding of resynthesized hit compounds to HuR is tested in solution. As the primary result, the identified compounds represent high affinity HuR binders. Functionally, these may be inhibitors of any HuR activity including ARE recognition, nucleocytoplasmic shuttling and protection of the mRNA from ARE-dependent degradation.
The RNA fraction bound y is calculated from the anisotropy data based on y=(r−rmin)/((r−rmin)+Q(rmax−r)) with r≡ measured anisotropy, rmin, rmax≡ anisotropy of the free and HuR bound RNA, respectively, Q ≡ quenching. Dissociation constants Kd are determined by nonlinear curve fitting with KMath in Mathematica 5.0.0, assuming a 1:1:1 stoichiometric, competitive inhibition.

T1 sequence (Q15717 whole entry): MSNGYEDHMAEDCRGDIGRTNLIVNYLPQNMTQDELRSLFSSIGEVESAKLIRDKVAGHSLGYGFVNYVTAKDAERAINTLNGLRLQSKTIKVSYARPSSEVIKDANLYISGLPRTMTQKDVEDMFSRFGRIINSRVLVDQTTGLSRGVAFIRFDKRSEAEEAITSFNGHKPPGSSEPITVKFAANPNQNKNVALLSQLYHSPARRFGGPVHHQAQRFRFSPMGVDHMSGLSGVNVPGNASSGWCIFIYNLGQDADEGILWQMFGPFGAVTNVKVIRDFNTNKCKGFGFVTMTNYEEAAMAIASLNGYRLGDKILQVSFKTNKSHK

Row | Kd | Structure (SMILES)
1 | 92 ± 22 nM | COc1cccc(CNC(=O)c2ccc(C(=O)NC(Cc3ccc(CN)cc3)C(=O)NCc3ccc(C)cc3)cc2)c1 (stereo not shown) [Example 3, N-[2-(4-Aminomethyl-phenyl)-1-(4-methyl-benzylcarbamoyl)-ethyl]-N′-(3-methoxy-benzyl)-terephthalamide]
2 | 103 ± 20 nM | COCCn1c(C(=O)CN2CCC(C(N)=O)CC2)cc(C(=O)NC(CCO)C(=O)NCCCN2CCCC2=O)c1C (stereo not shown) [Example 4, 1-{2-[4-{3-Hydroxy-1-[3-(2-oxo-pyrrolidin-1-yl)-propylcarbamoyl]-propylcarbamoyl}-1-(2-methoxy-ethyl)-5-methyl-1H-pyrrol-2-yl]-2-oxo-ethyl}-piperidine-4-carboxylic acid amide]
3 | 104 ± 14 nM | COc1cccc(CCn2c(C(=O)CN3CCCCC3)cc(C(=O)NC(CC(=O)O)C(=O)NCCCN3CCCC3=O)c2C)c1 (stereo not shown) [Example 5, 3-{[1-[2-(3-Methoxy-phenyl)-ethyl]-2-methyl-5-(2-piperidin-1-yl-acetyl)-1H-pyrrole-3-carbonyl]-amino}-N-[3-(2-oxo-pyrrolidin-1-yl)-propyl]-succinamic acid]
4 | 143 ± 27 nM | Cc1c(C(=O)NC(Cc2c[nH]c3ccccc23)C(=O)NCCCN2CCCC2=O)cc(C(=O)CN2CCCCC2)n1Cc1ccccc1 (stereo not shown) [Example 6, 1-Benzyl-2-methyl-5-(2-piperidin-1-yl-acetyl)-1H-pyrrole-3-carboxylic acid {2-(1H-indol-3-yl)-1-[3-(2-oxo-pyrrolidin-1-yl)-propylcarbamoyl]-ethyl}-amide]

From patent US20090005419A1, “Organic Compounds” (priority 2005, published 2009)
